Source: PubChem BioAssay AID1963862 (Molecular Pharmacology Branch, DTP, NCI, 2024)

Test system: KRAS patient-derived spheroids with HUVEC/MSC, viability
Assay: Anticancer human tumor 941728-121-R-J1-PDC patient-derived lung adenocarcinoma cell line growth inhibition [KRAS2]
Details: for IC50: curve of first compound; for viability, T/C: stronger effect = lower value
Method in brief: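 Combination screen of spheroid viability in tumor-cell co-cultures with endothelial (HUVEC) and mesenchymal stem cell stroma. Each agent was tested in half-log dilutions, topping at clinical Cmax or at 10 microM without a known Cmax.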

[1] = second compound 0.1 µM, first compound 0.0316 µM
[2] = second compound 0.1 µM, first compound 0.1 µM
[3] = second compound 0.1 µM, first compound 0.316 µM
[4] = second compound 0.1 µM, first compound 1 µM
[5] = second compound 0.1 µM, first compound 3.16 µM
[6] = second compound 0.1 µM, first compound 10 µM
[7] = second compound 0.316 µM, first compound 0.0316 µM
[8] = second compound 0.316 µM, first compound 0.1 µM
[9] = second compound 0.316 µM, first compound 0.316 µM
[10] = second compound 0.316 µM, first compound 1 µM
[11] = second compound 0.316 µM, first compound 3.16 µM
[12] = second compound 0.316 µM, first compound 10 µM
[13] = second compound 1 µM, first compound 0.0316 µM
[14] = second compound 1 µM, first compound 0.1 µM
[15] = second compound 1 µM, first compound 0.316 µM
[16] = second compound 1 µM, first compound 1 µM
[17] = second compound 1 µM, first compound 3.16 µM
[18] = second compound 1 µM, first compound 10 µM
[19] = second compound 3.16 µM, first compound 0.0316 µM
[20] = second compound 3.16 µM, first compound 0.1 µM
[21] = second compound 3.16 µM, first compound 0.316 µM
[22] = second compound 3.16 µM, first compound 1 µM
[23] = second compound 3.16 µM, first compound 3.16 µM
[24] = second compound 3.16 µM, first compound 10 µM
[25] = second compound 10 µM, first compound 0.0316 µM
[26] = second compound 10 µM, first compound 0.1 µM
[27] = second compound 10 µM, first compound 0.316 µM
[28] = second compound 10 µM, first compound 1 µM
[29] = second compound 10 µM, first compound 3.16 µM
[30] = second compound 10 µM, first compound 10 µM
[31] = second compound 0.1 µM, first compound 0.000316 µM
[32] = second compound 0.1 µM, first compound 0.001 µM
[33] = second compound 0.1 µM, first compound 0.00316 µM
[34] = second compound 0.1 µM, first compound 0.01 µM
[35] = second compound 0.316 µM, first compound 0.000316 µM
[36] = second compound 0.316 µM, first compound 0.001 µM
[37] = second compound 0.316 µM, first compound 0.00316 µM
[38] = second compound 0.316 µM, first compound 0.01 µM
[39] = second compound 1 µM, first compound 0.000316 µM
[40] = second compound 1 µM, first compound 0.001 µM
[41] = second compound 1 µM, first compound 0.00316 µM
[42] = second compound 1 µM, first compound 0.01 µM
[43] = second compound 3.16 µM, first compound 0.000316 µM
[44] = second compound 3.16 µM, first compound 0.001 µM
[45] = second compound 3.16 µM, first compound 0.00316 µM
[46] = second compound 3.16 µM, first compound 0.01 µM
[47] = second compound 10 µM, first compound 0.000316 µM
[48] = second compound 10 µM, first compound 0.001 µM
[49] = second compound 10 µM, first compound 0.00316 µM
[50] = second compound 10 µM, first compound 0.01 µM
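Further: spheroids exposed to agents for seven days before readout.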

CC(C)NCC(C(=O)N1CCN(c2ncnc3c2C(C)CC3O)CC1)c1ccc(Cl)cc1 (stereo not given) + CNCc1ccccc1-c1csc(C(C)Nc2nc(C)nc3cc(OC)c(OC)cc23)c1
IC50 (second compound 0.1 µM): 218 nM
IC50 (second compound 0.316 µM): < 31.6 nM
IC50 (second compound 1 µM): < 31.6 nM
IC50 (second compound 3.16 µM): < 31.6 nM
IC50 (second compound 10 µM): < 31.6 nM
viability, T/C [1]: 68.6%
viability, T/C [2]: 57%
viability, T/C [3]: 47.9%
viability, T/C [4]: 33.3%
viability, T/C [5]: 28.1%
viability, T/C [6]: 16.6%
viability, T/C [7]: 42.3%
viability, T/C [8]: 42.9%
viability, T/C [9]: 29.1%
viability, T/C [10]: 24.7%
viability, T/C [11]: 22.4%
viability, T/C [12]: 12.4%
viability, T/C [13]: 23.9%
viability, T/C [14]: 33.2%
viability, T/C [15]: 21.2%
viability, T/C [16]: 16.1%
viability, T/C [17]: 6.11%
viability, T/C [18]: 4.4%
viability, T/C [19]: 0.08%
viability, T/C [20]: 0.12%
viability, T/C [21]: 0.11%
viability, T/C [22]: 0.08%
viability, T/C [23]: 0.04%
viability, T/C [24]: 0.16%
viability, T/C [25]: 0.16%
viability, T/C [26]: 0.15%
viability, T/C [27]: 0.12%
viability, T/C [28]: 1.66%
viability, T/C [29]: 0.11%
viability, T/C [30]: 0.25%

CC(C)n1nc(-c2ccc3oc(N)nc3c2)c2c(N)ncnc21 + CNCc1ccccc1-c1csc(C(C)Nc2nc(C)nc3cc(OC)c(OC)cc23)c1
IC50 (second compound 0.1 µM): 0.668 nM
IC50 (second compound 0.316 µM): < 0.316 nM
IC50 (second compound 1 µM): < 0.316 nM
IC50 (second compound 3.16 µM): < 0.316 nM
IC50 (second compound 10 µM): < 0.316 nM
viability, T/C [31]: 49%
viability, T/C [32]: 59.2%
viability, T/C [33]: 37.3%
viability, T/C [34]: 34.3%
viability, T/C [1]: 34.5%
viability, T/C [2]: 31.4%
viability, T/C [35]: 44.7%
viability, T/C [36]: 45.2%
viability, T/C [37]: 35.9%
viability, T/C [38]: 23.1%
viability, T/C [7]: 24.1%
viability, T/C [8]: 16.6%
viability, T/C [39]: 34.8%
viability, T/C [40]: 29.3%
viability, T/C [41]: 15.9%
viability, T/C [42]: 13.6%
viability, T/C [13]: 11%
viability, T/C [14]: 7.65%
viability, T/C [43]: 0.15%
viability, T/C [44]: 0.16%
viability, T/C [45]: 0.1%
viability, T/C [46]: 0.11%
viability, T/C [19]: 0.08%
viability, T/C [20]: 0.13%
viability, T/C [47]: 0.58%
viability, T/C [48]: 0.43%
viability, T/C [49]: 2.78%
viability, T/C [50]: 0.67%
viability, T/C [25]: 0.67%
viability, T/C [26]: 0.72%

CC1(C)CCC(CN2CCN(c3ccc(C(=O)NS(=O)(=O)c4ccc(NCC5CCOCC5)c([N+](=O)[O-])c4)c(Oc4cnc5[nH]ccc5c4)c3)CC2)=C(c2ccc(Cl)cc2)C1 + CNCc1ccccc1-c1csc(C(C)Nc2nc(C)nc3cc(OC)c(OC)cc23)c1
IC50 (second compound 0.1 µM): < 31.6 nM
IC50 (second compound 0.316 µM): < 31.6 nM
IC50 (second compound 1 µM): < 31.6 nM
IC50 (second compound 3.16 µM): < 31.6 nM
IC50 (second compound 10 µM): < 31.6 nM
viability, T/C [1]: 41.7%
viability, T/C [2]: 41.8%
viability, T/C [3]: 41.4%
viability, T/C [4]: 39.2%
viability, T/C [5]: 6.99%
viability, T/C [6]: 4.92%
viability, T/C [7]: 39.8%
viability, T/C [8]: 36%
viability, T/C [9]: 33.4%
viability, T/C [10]: 35.1%
viability, T/C [11]: 7.18%
viability, T/C [12]: 2.59%
viability, T/C [13]: 27%
viability, T/C [14]: 31.7%
viability, T/C [15]: 23.2%
viability, T/C [16]: 22.6%
viability, T/C [17]: 4.9%
viability, T/C [18]: 1.48%
viability, T/C [19]: 0.19%
viability, T/C [20]: 0.17%
viability, T/C [21]: 0.27%
viability, T/C [22]: 0.69%
viability, T/C [23]: 0.04%
viability, T/C [24]: 0.12%
viability, T/C [25]: 0.11%
viability, T/C [26]: 0.11%
viability, T/C [27]: 0.09%
viability, T/C [28]: 0.33%
viability, T/C [29]: 0.1%
viability, T/C [30]: 0.12%

Cn1ncnc1[C@H]1c2n[nH]c(=O)c3cc(F)cc(c23)N[C@@H]1c1ccc(F)cc1 + CNCc1ccccc1-c1csc(C(C)Nc2nc(C)nc3cc(OC)c(OC)cc23)c1
IC50 (second compound 0.1 µM): 6.44 nM
IC50 (second compound 0.316 µM): < 0.316 nM
IC50 (second compound 1 µM): < 0.316 nM
IC50 (second compound 3.16 µM): < 0.316 nM
IC50 (second compound 10 µM): < 0.316 nM
viability, T/C [31]: 52.8%
viability, T/C [32]: 70.3%
viability, T/C [33]: 47.4%
viability, T/C [34]: 44.4%
viability, T/C [1]: 44.3%
viability, T/C [2]: 37.2%
viability, T/C [35]: 35.8%
viability, T/C [36]: 30.6%
viability, T/C [37]: 27.9%
viability, T/C [38]: 29.3%
viability, T/C [7]: 26.3%
viability, T/C [8]: 27.4%
viability, T/C [39]: 14.4%
viability, T/C [40]: 15.7%
viability, T/C [41]: 15.4%
viability, T/C [42]: 14.4%
viability, T/C [13]: 10.9%
viability, T/C [14]: 15.1%
viability, T/C [43]: 0.11%
viability, T/C [44]: 0.05%
viability, T/C [45]: 0.16%
viability, T/C [46]: 0.06%
viability, T/C [19]: 0.09%
viability, T/C [20]: 0.18%
viability, T/C [47]: 0.08%
viability, T/C [48]: 0.09%
viability, T/C [49]: 0.08%
viability, T/C [50]: 0.09%
viability, T/C [25]: 0.12%
viability, T/C [26]: 0.16%
